Assay results published in ChEMBL document CHEMBL3632525, “Decorated 6,6,7,7-tetrahydro-1H,1H-2,3-biindole scaffold as promising candidate for recognition of the CDK2 allosteric site” (Medchemcomm, 2015).
Calls of active or inactive are those of the source. No cut-off for these calls is given here.

Columns and labels:
HEp-2 [1] = assay: Cytotoxicity against human Hep2 cells assessed as reduction of cell viability at 80 to 100 uM by CellTiter-Glo luminescent assay; assay type: functional, cell-based; conditions: TDE = time-dependent effect
[2] = molecular target: T1, Cyclin-dependent kinase 2 (Homo sapiens, UniProt P24941); assay: Inhibition of CDK2 phosphorylation in human Hep2 cells at 100 uM after 24 hrs by Western blot analysis relative to control; assay type: cell-based; conditions: HEp-2
[3] = molecular target: T2, Cyclin-dependent kinase 2/cyclin E1 (Homo sapiens) (UniProt P24864+P24941); assay: Inhibition of CDK2/Cyclin E in human Hep2 cells assessed as reduction of hyperphosphorylated pRB expression at 100 uM after 24 hrs by Western blot analysis relative to control; assay type: cell-based; conditions: HEp-2
Vero [4] = assay: Inhibition of cyclin E phosphorylation in African green monkey Vero cells at 100 uM after 24 hrs by Western blot analysis relative to control; assay type: cell-based; conditions: Chlorocebus sabaeus
Vero [5] = assay: Cytotoxicity against African green monkey Vero cells assessed as reduction of cell viability at 80 to 100 uM by CellTiter-Glo luminescent assay; assay type: cell-based; conditions: chlorocebus sabaeus, TDE = time-dependent effect
[6] = molecular target: T2, Cyclin-dependent kinase 2/cyclin E1 (Homo sapiens); assay: Inhibition of CDK2/Cyclin E in HEK293T cells assessed as reduction of EGF-stimulated E2F pathway after 24 hrs by dual-Glo luciferase reporter gene assay relative to control; assay type: cell-based; conditions: HEK-293T
[7] = molecular target: G1/S-specific cyclin-E1 (Homo sapiens) (UniProt P24864); assay: Inhibition of cyclin E phosphorylation in human Hep2 cells at 100 uM after 24 hrs by Western blot analysis relative to control; assay type: cell-based; conditions: HEp-2
Sequence of G1/S-specific cyclin-E1 (Homo sapiens) (P24864 whole entry): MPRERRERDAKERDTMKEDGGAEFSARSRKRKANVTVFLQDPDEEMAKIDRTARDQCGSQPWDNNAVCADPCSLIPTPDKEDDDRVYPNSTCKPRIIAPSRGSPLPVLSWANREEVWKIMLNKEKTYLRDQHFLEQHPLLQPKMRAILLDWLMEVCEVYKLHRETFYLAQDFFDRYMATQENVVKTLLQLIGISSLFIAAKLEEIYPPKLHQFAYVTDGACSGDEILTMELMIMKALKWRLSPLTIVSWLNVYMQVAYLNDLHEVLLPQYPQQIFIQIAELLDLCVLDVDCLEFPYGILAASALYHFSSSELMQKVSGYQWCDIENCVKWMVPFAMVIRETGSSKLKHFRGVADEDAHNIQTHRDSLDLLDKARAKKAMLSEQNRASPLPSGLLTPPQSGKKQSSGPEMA

HEp-2 [8] = assay: Cytotoxicity against human Hep2 cells assessed as reduction of cell viability after 24 to 72 hrs by CellTiter-Glo luminescent assay; assay type: functional, cell-based
Vero [9] = assay: Inhibition of CDK2/Cyclin E in African green monkey Vero cells assessed as reduction of hyperphosphorylated pRB expression at 100 uM after 24 hrs by Western blot analysis relative to control; assay type: cell-based; conditions: Chlorocebus sabaeus
HEK-293T [10] = assay: Cytotoxicity against HEK293T cells assessed as reduction of cell viability at 80 to 100 uM by CellTiter-Glo luminescent assay; assay type: functional, cell-based; conditions: Homo sapiens, TDE = time-dependent effect
[11] = molecular target: G1/S-specific cyclin-E1 (Homo sapiens) (UniProt P24864); assay: Inhibition of cyclin E phosphorylation in HEK293T cells at 100 uM after 24 hrs by Western blot analysis relative to control; assay type: cell-based; conditions: HEK-293T
[12] = molecular target: T2, Cyclin-dependent kinase 2/cyclin E1 (Homo sapiens); assay: Inhibition of CDK2/Cyclin E in HEK293T cells assessed as reduction of hyperphosphorylated pRB expression at 100 uM after 24 hrs by Western blot analysis relative to control; assay type: cell-based; conditions: HEK-293T
Vero [13] = assay: Inhibition of CDK2 phosphorylation in African green monkey Vero cells at 100 uM after 24 hrs by Western blot analysis relative to control; assay type: cell-based; conditions: Chlorocebus sabaeus
[14] = molecular target: T1, Cyclin-dependent kinase 2; assay: Inhibition of CDK2 phosphorylation in HEK293T cells at 100 uM after 24 hrs by Western blot analysis relative to control; assay type: cell-based; conditions: HEK-293T
[15] = molecular target: T1, Cyclin-dependent kinase 2; assay: Binding affinity to CDK2 allosteric site (unknown origin)
HEK-293T [16] = assay: Cytotoxicity against HEK293T cells assessed as reduction of cell viability after 24 to 72 hrs by CellTiter-Glo luminescent assay; assay type: functional, cell-based; conditions: Homo sapiens
Vero [17] = assay: Cytotoxicity against African green monkey Vero cells assessed as reduction of cell viability after 24 to 72 hrs by CellTiter-Glo luminescent assay; assay type: cell-based; conditions: chlorocebus sabaeus

inhibition [2]: Active | inhibition [3]: Active | inhibition [6]: Dose-dependent effect | inhibition [7]: Active | inhibition [11]: Active | inhibition [12]: Active | inhibition [14]: Active | IC50 [15]: > 91 µM
SMILES: Cc1[nH]c2c(c1C1(C)NC3=C(C(=O)CC(c4ccccc4)C3)C1=O)C(=O)CC(c1ccccc1)C2 (configuration not stated)
Activity (HEp-2 [1]): tde | inhibition (Vero [4]): Active | Activity (Vero [5]): tde | Activity (HEp-2 [8]): Dose-dependent effect | inhibition (Vero [9]): Active | Activity (HEK-293T [10]): tde | inhibition (Vero [13]): Active | Activity (HEK-293T [16]): Dose-dependent effect | Activity (Vero [17]): Dose-dependent effect
